Results from US20020004218A1, “Methods for identifying compounds useful for inhibiting geranylgeranyl diphosphate synthase” (priority 2000, published 2002).

Experiments:
osteoclasts = osteoclasts in culture; cited from earlier work
sterol synthesis = details: incorporation of 14C-MVA into sterol, rat liver cell-free system; read-out: IC50, block of sterol synthesis; cited from earlier work
[1] = target: T1, rat liver squalene synthase (Rattus norvegicus, UniProt Q02769); details: cited from earlier work
T1 construct: host or cells: rat liver
T1 sequence (Q02769 1-416): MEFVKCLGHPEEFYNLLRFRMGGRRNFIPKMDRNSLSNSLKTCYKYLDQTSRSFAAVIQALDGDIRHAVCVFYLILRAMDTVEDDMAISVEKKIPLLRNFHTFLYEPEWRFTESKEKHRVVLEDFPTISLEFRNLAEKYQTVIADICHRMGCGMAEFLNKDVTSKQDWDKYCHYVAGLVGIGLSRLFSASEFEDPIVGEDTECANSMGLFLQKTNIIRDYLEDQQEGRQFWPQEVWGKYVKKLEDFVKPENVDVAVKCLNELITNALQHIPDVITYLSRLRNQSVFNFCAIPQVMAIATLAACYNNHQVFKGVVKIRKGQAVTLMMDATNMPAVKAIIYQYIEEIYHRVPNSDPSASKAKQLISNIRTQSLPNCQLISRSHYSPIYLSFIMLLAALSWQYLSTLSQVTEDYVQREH

[2] = tested on: geranylgeranyl diphosphate synthase
From the text: The present invention relates to a method for identifying inhibitors of geranylgeranyl diphosphate synthase comprising:
a). contacting a putative geranylgeranyl diphosphate synthase inhibitor with a geranylgeranyl diphosphate synthase assay solution, and
b). determining, i.e. comparing, the geranylgeranyl diphosphate synthase activity of said assay solution with a geranylgeranyl diphosphate synthase assay solution not contacted with said putative inhibitor, in order to determine the amount of inhibition.
In these methods the geranylgeranyl diphosphatesynthase assay solution is typically an aqueous solution. The inhibition effect is measured with respect to the catalysis of an appropriate reaction that one of ordinary skill in the art can select. Reaction times, conditions, quatitation methods, and other variables are chosen for convenience to obtain a readily quantitated system for measuring the inhibition of the geranylgeranyl diphosphate synthase.
Additionally, in these methods of identifying inhibitors of geranylgeranyl diphosphate synthase, the enzyme can be used in a crude, unpurified state, from various tissues sources, e.g., liver. Alternatively, the enzyme can be used in a partially purified state, a purified state, or as an expressed form of the enzyme, e.g., the expressed human enzyme.

SMILES	bone resorption (osteoclasts)	osteoclast formation (osteoclasts)	IC50 (sterol synthesis)	inhibition of squalene synthase [1]	inhibition of geranylgeranyl diphosphate synthase [2]
CC[C@H](C)C(=O)O[C@H]1C[C@@H](C)C=C2C=C[C@H](C)[C@H](CC[C@@H]3C[C@@H](O)CC(=O)O3)[C@H]21 [lovastatin]	inhibited	inhibited	–	–	–
NCCC(O)(P(=O)(O)O)P(=O)(O)O [pamidronate, 3-amino-1-hydroxypropylidene-1,1-bisphosphonic acid]	–	–	420 nM	comparatively little effect	–
O=P(O)(O)C(O)(Cc1cccnc1)P(=O)(O)O [risedronate, 1-hydroxy-2-(3-pyridinyl)-ethylidene-1,1-bisphosphonic acid]	–	–	–	–	specific nanomolar inhibitors
NCCCC(O)(P(=O)(O)O)P(=O)(O)O [alendronate, 4-amino-1-hydroxybutylidene-1,1-bisphosphonic acid monosodium trihydrate]	inhibited	inhibited	168 nM	comparatively little effect	–
O=P(O)(O)C(O)(CCN1CCCC1)P(=O)(O)O [EB 1053, 1-hydroxy-3-(1-pyrrolidinyl)-propylidene-1,1-bisphosphonic acid]	–	–	–	potent, nanomolar inhibitors	–
O=P(O)(O)C(NC1CCCCCC1)P(=O)(O)O [YM 175, Cycloheptylaminomethylene-1,1-bisphosphonic acid]	–	–	–	potent, nanomolar inhibitors	–
